Test results as given in ChEMBL document CHEMBL1156995, “Identification of potent, highly constrained CGRP receptor antagonists” (Bioorg Med Chem Lett, 2010).
Calls of active or inactive are those of the source. No cut-off for these calls is given here.

Tests used:
[1] = target: T1, Calcitonin gene-related peptide type 1 receptor (Homo sapiens, UniProt O60894+Q16602); assay: Displacement of […] expressed in HEK293 cells coexpressing human RAMP1; format: cell-based
[2] = target: T1, Calcitonin gene-related peptide type 1 receptor; assay: Antagonist activity at human CLR expressed in human HEK293 cells coexpressing human RAMP1 assessed as Inhibition of CGRP-induced cAMP production; format: functional, cell-based
[3] = target: T1, Calcitonin gene-related peptide type 1 receptor; assay: Antagonist activity at human CLR expressed in human HEK293 cells coexpressing human RAMP1 assessed as Inhibition of CGRP-induced cAMP production in the presence of 50% human serum; format: functional, cell-based
[4] = Oral bioavailability in rat at 10 mg/kg in presence of lmwitor:tween; format: ADME, organism-based; settings: in vivo
[5] = Half life in rat at 2 mg/kg, iv; format: ADME, organism-based; design: dose 2 mg/kg, route intravenous; settings: in vivo
[6] = Clearance in rat at 10 mg/kg, po or 2 mg/kg, iv; format: ADME, organism-based; settings: in vivo
[7] = Oral bioavailability in rat at 5 mg/kg in presence of PEG400:water; format: ADME, organism-based; settings: in vivo
[8] = Half life in rat at 1 mg/kg, iv; format: ADME, organism-based; design: dose 1 mg/kg, route intravenous; settings: in vivo
[9] = Clearance in rat at 5 mg/kg, po or 1 mg/kg, iv; format: ADME, organism-based; settings: in vivo
[10] = Oral bioavailability in rat at 10 mg/kg in presence of methylcellulose; format: ADME, organism-based; settings: in vivo
[11] = Clearance in rhesus monkey at 2 mg/kg, po and 0.5 mg/kg, iv; format: ADME, organism-based, Macaca mulatta; settings: in vivo
[12] = Oral bioavailability in dog at 1 mg/kg in presence of methylcellulose; format: ADME, organism-based, Canis lupus familiaris; settings: in vivo
[13] = Oral bioavailability in rhesus monkey at 2 mg/kg in presence of methylcellulose; format: ADME, organism-based, Macaca mulatta; settings: in vivo
[14] = Half life in rat at 2mg/kg, iv; format: ADME, organism-based; settings: in vivo
[15] = Half life in dog at 0.5 mg/kg, iv; format: ADME, organism-based, Canis lupus familiaris; design: dose 0.5 mg/kg, route intravenous; settings: in vivo
[16] = Half life in rhesus monkey at 0.5 mg/kg, iv; format: ADME, organism-based, Macaca mulatta; design: dose 0.5 mg/kg, route intravenous; settings: in vivo
[17] = Clearance in rat at 10 mg/kg, po and 2 mg/kg, iv; format: ADME, organism-based; settings: in vivo
[18] = Clearance in dog at 1 mg/kg, po and 0.5 mg/kg, iv; format: ADME, organism-based, Canis lupus familiaris; settings: in vivo
[19] = system: Rhesus monkey; assay: Inhibition of capsaicin-induced vasodilation in orally dosed rhesus monkey at 5.5 uM plasma level; format: functional, organism-based; settings: Macaca mulatta
[20] = system: Rhesus monkey; assay: Inhibition of capsaicin-induced vasodilation in orally dosed rhesus monkey; format: functional, organism-based; settings: Macaca mulatta
[21] = Oral bioavailability in rat at 5 mg/kg in presence of lmwitor:tween; format: ADME, organism-based; settings: in vivo

T1 sequence (Q16602 whole entry, one chain of several): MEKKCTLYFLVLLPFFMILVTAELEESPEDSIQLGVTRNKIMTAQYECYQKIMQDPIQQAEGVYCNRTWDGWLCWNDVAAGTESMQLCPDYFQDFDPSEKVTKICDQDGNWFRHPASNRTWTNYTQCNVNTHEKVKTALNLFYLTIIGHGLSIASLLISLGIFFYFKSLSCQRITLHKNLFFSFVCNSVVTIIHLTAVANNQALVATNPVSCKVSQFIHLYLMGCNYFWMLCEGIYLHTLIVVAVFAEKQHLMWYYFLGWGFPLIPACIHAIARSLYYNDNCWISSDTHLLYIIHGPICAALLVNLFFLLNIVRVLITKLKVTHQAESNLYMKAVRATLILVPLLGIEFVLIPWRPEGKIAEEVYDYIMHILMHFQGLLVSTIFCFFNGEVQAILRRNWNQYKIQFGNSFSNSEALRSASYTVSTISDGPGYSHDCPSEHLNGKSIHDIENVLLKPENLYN

Structure (SMILES) | Ki [1] [nM] | IC50 [2] [nM] | IC50 [3] [nM] | half-life [5] [min] | clearance [6] [mL/min/kg] | also measured
CN1C(=O)NC(=O)[C@@]12Cc1cc3nc(Cn4c(=O)n(-c5ccccn5)c5ccccc54)oc3cc1C2 | 6000 | – | – | – | – | –
CN1C(=O)NC(=O)[C@@]12Cc1cc3ccc(CN4CC5(C)CC(=O)Nc6cccc4c65)nc3cc1C2 (some centres undefined) | 0.52 | 2.2 | 6.5 | 96 | 14 | clearance [11]: 5.6 mL/min/kg; bioavailability [10]: 45%; bioavailability [4]: 34%; bioavailability [12]: 59%; bioavailability [13]: 38%; half-life [14]: 96 min; half-life [15]: 366 min; half-life [16]: 102 min; clearance [17]: 14 mL/min/kg; clearance [18]: 1.6 mL/min/kg; inhibition [19]: Active; EC90 [20]: 5500 nM
CN1C(=O)Cn2c(=O)n(Cc3ccc4cc5c(cc4n3)C[C@@]3(C5)C(=O)Nc4ncccc43)c3cccc1c32 | 0.41 | 1.2 | 95 | – | – | –
CC12CC(=O)Nc3cccc(c31)N(Cc1ccc3cc4c(cc3n1)C[C@@]1(C4)C(=O)Nc3ncccc31)C2 (some centres undefined) | 0.12 | 0.52 | 1.3 | 37.2 | 28 | bioavailability [4]: 6%
CN1C(=O)NC(=O)[C@]12Cc1cc3ccc(Cn4c(=O)n(-c5ccccn5)c5ccccc54)nc3cc1C2 | 17 | – | – | – | – | –
O=C1CC2CN(Cc3ccc4cc5c(cc4n3)C[C@@]3(C5)C(=O)Nc4ncccc43)c3cccc(c32)N1 (some centres undefined) | 0.55 | 0.86 | 4.1 | – | – | bioavailability [21]: 8%; half-life [8]: 19.2 min; clearance [9]: 19 mL/min/kg
O=C1CCc2ccccc2N1Cc1ccc2cc3c(cc2n1)C[C@@]1(C3)C(=O)Nc2ncccc21 | 1.4 | 4.7 | 81 | 21 | 56 | bioavailability [10]: 3%
CCC12CC(=O)Nc3cccc(c31)N(Cc1ccc3cc4c(cc3n1)C[C@@]1(C4)C(=O)NC(=O)N1C)C2 (some centres undefined) | 1.3 | 7.2 | 44 | 66 | 44 | bioavailability [10]: 65%
CN1C(=O)Cn2c(=O)n(Cc3ccc4cc5c(cc4n3)C[C@@]3(C5)C(=O)NC(=O)N3C)c3cccc1c32 | 3 | 33 | 1200 | – | – | –
CN1C(=O)NC(=O)[C@]12Cc1cc(F)c(NC(=O)Cn3c(=O)n(-c4ccccn4)c4ccccc43)cc1C2 | 720 | – | – | – | – | –

More lines, main results first:

Ki [1] [nM] | IC50 [2] [nM] | IC50 [3] [nM] | half-life [5] [min] | clearance [6] [mL/min/kg] | Structure (SMILES) | also measured
1.5 | 7.3 | 43 | 66 | 11 | CN1C(=O)NC(=O)[C@@]12Cc1cc3ccc(CN4CC5CC(=O)Nc6cccc4c65)nc3cc1C2 (some centres undefined) | bioavailability [4]: 41%
0.023 | 0.077 | 2.5 | – | – | O=C1Cn2c(=O)n(Cc3ccc4cc5c(cc4n3)C[C@@]3(C5)C(=O)Nc4ncccc43)c3cccc(c32)N1 | bioavailability [7]: 0%; half-life [8]: 27 min; clearance [9]: 40 mL/min/kg
8.9 | 50 | 850 | 42 | 38 | CN1C(=O)NC(=O)[C@@]12Cc1cc3ccc(CN4C(=O)CCc5ccccc54)nc3cc1C2 | bioavailability [10]: 10%
0.3 | 1.7 | 14 | – | – | CN1C(=O)NC(=O)[C@@]12Cc1cc3ccc(Cn4c(=O)n5c6c(cccc64)NC(=O)C5)nc3cc1C2 | –
55 | – | – | – | – | CN1C(=O)NC(=O)[C@]12Cc1ccc(NC(=O)Cn3c(=O)n(-c4ccccn4)c4ccccc43)c(F)c1C2 | –
0.072 | 0.68 | 1.5 | 36.6 | 11 | CCC12CC(=O)Nc3cccc(c31)N(Cc1ccc3cc4c(cc3n1)C[C@@]1(C4)C(=O)Nc3ncccc31)C2 (some centres undefined) | bioavailability [4]: 9%
185 | – | – | – | – | CN1C(=O)NC(=O)C12Cc1cc3ncc(Cn4c(=O)n(-c5ccccn5)c5ccccc54)nc3cc1C2 (centres undefined) | –
